Measurements taken from paper PMC10489817, “2-Alkyl-Substituted-4-Amino-Thieno[2,3-d]Pyrimidines: Anti-Proliferative Properties to In Vitro Breast Cancer Models” (Molecules, 2023).
“And” between values parts separate entries of the source, which are not always exact repeats. Equal values may be shown once. Read-outs that look alike come from different tables or passages of the source.

Assays:
[1] = in vitro 3T3 NRU test, cytotoxicity; format: cell-based, mouse; settings: mouse, BALB/3T3 clone A31 cells (mouse embryo fibroblasts)
Experimental: Compounds 2–5 were studied for cytotoxicity/phototoxicity by an in vitro 3T3 NRU-test. The cell line BALB 3T3, clone A31 (mouse embryo fibroblasts), was incubated with the test compounds at a concentration from 15 to 4000 µg/mL for 24 h at 37 °C, 5% CO2, and 95% humidity. The cytotoxicity and phototoxicity were expressed in percentages relative to the negative control determined. […] Based on the dose–response curves, the CC50/PC50 values (50% cytotoxic/phototoxic concentration) were calculated by nonlinear regression analysis (Table 1). The CC50 values can be used to calculate the PIF (photo-irritancy factor) for each test compound according to the following formula: PIF = CC50/PC50.
BALB/3T3 cells were cultured in 75 cm^2 tissue culture flasks in DMEM, 10% FBS, 2 mM glutamine, and antibiotics (penicillin 100 U/mL and streptomycin-100 µg/mL) at 37 °C, 5% CO2, and 90% relative humidity. Cytotoxicity/phototoxicity was assessed by a validated BALB/3T3 clone A31 neutral red uptake assay (3T3 NRU test). Briefly, cells were plated in a 96-well microtiter plate at a density of 1 × 10^4 cells/100 µL/well and incubated for 24 h. A wide concentration range was applied for the test compounds. For the phototoxicity tests, 96-well plates were irradiated with a dose of 2.4 J/cm^2, and the cells were incubated for an additional 24 h. After treatment with neutral red medium, washing, and treatment with the ethanol/acetic acid solution, the absorption was measured on a TECAN microplate reader (TECAN, Grödig, Austria) at a wavelength of 540 nm. The light source which we used was a light-emitting diode (LED) matrix—an artificial solar light simulator Helios-iO, model LE-9ND55-H—5500K (SERIC Ltd., Tokyo, Japan).
Cytotoxicity/phototoxicity were expressed as CC50/PC50 values (concentrations required for 50% cytotoxicity/phototoxicity), calculated using non-linear regression analysis (GraphPad Software GraphPad Prism 9.5.1, San Diego, CA, USA). The CC50 values were used to calculate the PIF (photo-irritancy factor) for each test substance, according to the following formula: […]

MCF-7 [2] = assay: ζ-potential measurement, MCF-7; format: cell-based, human; settings: PBS pH 7.4, 37 °C; more negative after treatment
Experimental: First, the ζ-potential of each cell line was measured, and all obtained values were negative (Figure 6A). The Student t-test statistical analysis which was applied distinguished the ζ-potentials of the three studied cell lines with p < 0.05, and the values followed the order of MCF-7 > MDA-MB-231 > MCF-10A. […] represents the relative percentage change of the ζ-potential induced by the studied compounds for the different cell lines. Compound 2 was able to decrease the ζ-potential of the cells with the following ranking: MCF-7 (42%) > MCF-10A (24%) > MDA-MB-231 (16%). For compound 4, the ranking was as follows: MCF-10A (50%) > MDA-MB-231 (46%) > MCF-7 (3%). For compound 5, this was MCF-10A (36%) > MCF-7 (22%) > […].
The zeta (ζ ξ) potential is the electrostatic potential at the shear plane of a cell, and is related to both its surface charge and the local environment. The ζ-potential of the intact cells and the treated ones was recorded in a cell suspension (0.5 × 10^6 cells/mL) in PBS, using the electrophoretic light-scattering technique on a Zetasizer Nano ZS analyzer (Malvern Instruments, Great Britain). Laser Doppler electrophoresis and velocimetry of cells were used to determine the ζ-potential by measuring the speeds of the cells in PBS upon the application of an electric field. The ζ-potential was calculated based on the Helmholtz–Smoluchowski equation. The measurements were performed in a U-shaped cell with gold-plated electrodes at 37 °C.
Figure 6 ζ-potential of the investigated cell lines, MCF-10A, MCF-7, and MDA-MB-231 (A). Alterations in the ζ-potential after treatment with compounds 2 (pink), 4 (blue), and 5 (green) (B). All zeta potential values were measured in PBS buffer (137 mM NaCl, 2.7 mM KCl, 8 mM Na2HPO4, and 2 mM KH2PO4; pH 7.4) at 37 °C. Two independent experiments were carried out for each cell line, and each sample was measured 6 times. (*; ***) denote p < 0.05 and p < 0.001 as follows. […]

MCF-7 [3] = assay: MTT anti-proliferative test, MCF-7; format: cell-based, human; settings: for SI (selective index) MCF-7: IC50 MCF-10A/IC50 MCF-7
Text: The MCF-10A cell line (normal human mammary epithelial cells) served as a reference control.
All breast cell lines (MCF-10A, MCF-7, and MDA-MB-231) were purchased from the American Type Culture Collection—ATCC (Manassas, VA, USA). The MCF-7 and MDA-MB-231 were cultivated in Dulbecco’s modified Eagle’s medium (DMEM) and supplemented with 10% fetal bovine serum (FBS), 1% sodium pyruvate, and 1% MEM non-essential amino acids (NEAA) without antibiotics. The non-tumorigenic breast cell line (MCF-10A) was cultivated in DMEM medium (Sigma-Aldrich, St. Louis, MO, USA) and supplemented with 10% FBS, 1% sodium pyruvate, 1% non-essential amino acids (NEAA), 20 ng/mL human epithelia growth factor (hEGF), 10 μg/mL insulin, and 0.5 μg/mL hydrocortisone without antibiotics. All cell lines were maintained in a humidified atmosphere, with 5% CO2 at 37 °C.
Using the standard MTT-dye reduction assay described by Mosmann, the anti-proliferative activity was tested. The method is based on the metabolism of the tetrazolium salt MTT to insoluble formazan. The formazan absorption was registered using a microplate reader at λ = 540 nm. The measured absorption is an indicator of cell viability and metabolic activity. Anti-proliferative activities were expressed as IC50 values (concentrations required for 50% inhibition of cell growth), calculated using non-linear regression analysis (GraphPad Software, San Diego, CA, USA).

[4] = BALB 3T3, 24 h, NRU, no irradiation (CC50), read-out: IC50 of Mean ± SD, Cytotoxicity
[5] = BALB 3T3, value in brackets, read-out: IC50, Cytotoxicity (converted)
[6] = Homo sapiens, MCF7, MTT, read-out: IC50 MCF-7 (converted)
[7] = Homo sapiens, MCF7, MTT, read-out: IC50 of Mean ± SD, Anti-Proliferative Activity MCF-7
[8] = MTT, read-out: IC50 MCF-7 (converted)

Q: With `CCOC(=O)Cc1nc(N)c2c(C)c(C(=O)OCC)sc2n1` [Compound 2, Ethyl 4-Amino-2-(2-Ethoxy-2-Oxoethyl)-5-Methylthieno[2,3-d]Pyrimidine-6-Carboxylate] as the molecule, how does the IC50 at 24 h [1, 4] read?
A: 1740 ± 75.5 µg/mL

Q: And the IC50 at 24 h [1, 5]?
A: 5370 µM

Q: And the “Δζ/ζ relative change of ζ-potential, MCF-7” value (MCF-7 [2])?
A: 42.14% and 42%

Q: And the IC50 (MCF-7 [3]; [6])?
A: 300 µM

Q: What about the IC50 (MCF-7 [3]; [7]) of the same molecule?
A: 83.1 ± 7.3 µg/mL

Q: What about the “SI (selective index) MCF-7” value (MCF-7 [3]) of the same molecule?
A: 6.1

Q: What about the IC50 (MCF-7 [3]; [8]) of the same molecule?
A: 260 µM

Q: What does the source list for `CCOC(=O)c1sc2nc(CC)nc(N)c2c1C` [Compound 4, Ethyl 4-Amino-2-Ethyl-5-Methylthieno[2,3-d]Pyrimidine-6-Carboxylate]?
A: IC50 at 24 h [1, 4]: 2630 µg/mL; IC50 at 24 h [1, 5]: 9370 µM; Δζ/ζ relative change of ζ-potential, MCF-7 (MCF-7 [2]): 3.35% and 3%; IC50 (MCF-7 [3]; [6]): 100 µM; IC50 (MCF-7 [3]; [7]): 28.9 ± 2.1 µg/mL; SI (selective index) MCF-7 (MCF-7 [3]): 12.7; IC50 (MCF-7 [3]; [8]): 110 µM

Q: Which IC50 at 24 h [1, 4] does the source give for `CCOC(=O)c1sc2nc(C)nc(N)c2c1C` [Compound 5, Ethyl 4-Amino-2,5-Dimethyl-Thieno[2,3-d]Pyrimidine-6-Carboxylate] here?
A: 1540 ± 61.5 µg/mL

Q: And the IC50 at 24 h [1, 5]?
A: 5400 µM

Q: What about the “Δζ/ζ relative change of ζ-potential, MCF-7” value (MCF-7 [2]) of the same molecule?
A: 22.27% and 22%

Q: And the IC50 (MCF-7 [3]; [6])?
A: 100 µM

Q: What about the IC50 (MCF-7 [3]; [7]) of the same molecule?
A: 35.5 ± 1.5 µg/mL

Q: And the “SI (selective index) MCF-7” value (MCF-7 [3])?
A: 17.4

Q: And the IC50 (MCF-7 [3]; [8])?
A: 140 µM
